Data as given in patent publication US10052317B2, “Method for treating or preventing hot flushes” (Imperial Innovations Limited, priority 2013, dated 2018).
*1 amine or outer side, *2 acyl side, *3 side chain or, on linkers, in order; H or OH if unused. Where a SMILES comes first, the peptide text is derived from it. [ ]: non-standard residue; d: D form. NMeF = CN[C@@H](Cc1ccccc1)C(=O)O; Suc = O=C(CCC(=O)[*:2])[*:1]

What was measured:
[1] = biological target: T1, NKR3 (Homo sapiens, UniProt P29371); conditions: literature (Spooren 2006; Griebel 2012; Elmore 2011); cited from earlier work
T1 sequence (P29371 1-465): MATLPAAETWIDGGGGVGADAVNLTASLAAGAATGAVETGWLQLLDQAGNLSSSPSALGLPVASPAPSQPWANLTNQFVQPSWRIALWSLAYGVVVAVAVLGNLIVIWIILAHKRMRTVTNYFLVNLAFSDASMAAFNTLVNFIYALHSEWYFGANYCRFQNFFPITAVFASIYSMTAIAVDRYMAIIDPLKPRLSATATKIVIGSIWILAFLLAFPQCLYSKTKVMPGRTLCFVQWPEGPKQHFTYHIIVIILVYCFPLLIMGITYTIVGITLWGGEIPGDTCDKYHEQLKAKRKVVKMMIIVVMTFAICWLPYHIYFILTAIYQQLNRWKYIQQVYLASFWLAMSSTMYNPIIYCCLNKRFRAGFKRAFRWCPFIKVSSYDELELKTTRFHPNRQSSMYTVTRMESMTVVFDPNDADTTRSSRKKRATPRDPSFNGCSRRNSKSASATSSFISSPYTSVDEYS

[2] = test system: healthy female volunteers; experiment: Double-blinded placebo-controlled physiological assessment study during iv infusion of NKB and vehicle to healthy women; type: in vivo, human; conditions: for mean HR / mean skin temperature by skin probe / mean skin temperature by thermal imaging camera / mean MAP: NKB infusion
Description: (§1) Ten healthy female volunteers participated in the study (mean age 35.3±1.3y; mean body mass index 22.1±0.7 kg/m2), following ethical approval (reference: 10/H0707/68) and written consent, in accordance with The Declaration of Helsinki. Participants had no medical problems, were not on any regular medication and had regular menstrual cycles. Participants attended in the mornings and during the follicular phase of their menstrual cycle to minimise physiological changes in body temperature occurring during sleep and associated with ovulation (1) (Day of menstrual cycle: 5.9±0.6)
(§2) Human sequence neurokinin B was obtained and used as described above.
Having observed in Example 3 that participants reported flushing during NKB infusion, a double-blinded placebo-controlled study was carried out. This was performed in a climate-controlled Clinical Research Unit with ambient temperature 24° C. and humidity 50% as has been established in previous studies to be a suitable environment to investigate menopausal flushing (e.g. de Bakker I P, Everaerd W, Maturitas (1996) 25:87-98; Carpenter J S, Gilchrist J M, Chen K, Gautam S, Freedman R R, Menopause: The Journal of The North American Menopause Society (2004) 11:375-381). Participants were admitted on a morning between days 3 and 10 of their menstrual cycle, and asked to lay supine for the 270 minute study duration (FIG. 3). A cannula was inserted into a large forearm vein in both arms: one for collection of blood, and the second for vehicle (gelofusin) or NKB infusion. 30 minute iv infusion of either NKB ([…]) or vehicle (equivalent volume) were commenced at t=60 min and t=180 min, by an investigator blinded to the identity of each infusion. Each participant received one NKB infusion and one vehicle infusion, randomised and prepared by an independent investigator. Participants were informed that they could receive any of the following: NKB followed by vehicle; vehicle followed by NKB; NKB twice; vehicle twice. This strategy ensured integrity of blinding, since any symptoms experienced during the first infusion would not allow participants to automatically deduce the identity of the second infusion.
In order to prevent confounding factors which may affect flushing, participants were asked to refrain from hot drinks, caffeine, alcohol and spicy foods for 12 hours preceding the study start and for the duration of the study. All participants wore light cotton standard hospital gowns. All studies commenced between 9.30-10.30 am. Two experienced physicians were in attendance at all times. Symptoms, heart rate, blood pressure, sweating and skin temperature monitoring were performed as detailed below:
Heart Rate (HR) and Mean Arterial Blood Pressure (MAP): HR was recorded minutely for 20 minutes pre-infusion until 20 minutes post-infusion. MAP was recorded at 5 minute intervals (to minimize discomfort) for 20 minutes pre-infusion until 20 minutes post-infusion. At other times HR and MAP were recorded at 10 minute intervals (FIG. 3). MAP (in mmHg) was calculated using the following standard formula: MAP=((2×diastolic BP)+systolic BP)/3.
Skin Temperature: Skin temperature was recorded each minute for 20 minutes pre-infusion until 20 minutes post-infusion and at 10 minute intervals at other times. Skin temperature was measured by skin temperature probe attached to the neck (Mindray, Huntingdon, UK) and by thermal imaging camera (T440Bx, Flir, Wilsonville, USA). Thermal imaging temperature values were determined by in-built software which recorded the highest temperature point in a box constructed to contain the shoulders and head of the participant.
Skin Conductance: Increased skin conductance is an objective marker of sweating which occurs in menopausal flushing. […]

[3] = test system: healthy male subjects; experiment: Dose-finding study with 90-min intravenous infusion of NKB to healthy men; type: in vivo, human
Description: Human sequence neurokinin B was synthesised by Bachem Holding AG (Bubendorf, Switzerland), and purified by reverse-phase high performance liquid chromatography (HPLC). Electrospray mass spectroscopy and amino acid analysis confirmed identity of the peptide (lot:3007511). The Limulus amoebocyte lysate test detected no endotoxin (Associates of Cape Cod, Liverpool, UK), and bacterial culture was sterile (Department of Microbiology, Hammersmith Hospital, London, UK) in samples of neurokinin B peptide. Vials of freeze-dried neurokinin B were stored at −20° C. and reconstituted in 0.9% saline.
23 healthy male subjects participated in the study (mean age of 23 subjects: 29.0±1.3 years; mean body mass index of 23 subjects: 23.3±0.3 kg/m2), following ethical approval (reference:10/H0707/68) and written consent, in accordance with The Declaration of Helsinki. No subjects had any history of hot flushes, deficient levels of sex hormones, or were receiving any regular medications.
Studies were performed in the Clinical Investigation Unit, during which subjects asked to lay supine. This study was blinded to subjects but not investigators. NKB was dissolved in a vehicle consisting of saline containing Gelofusin (5% vol/vol) (B. Braun Medical, Sheffield, UK) to minimize peptide adsorption. […] Heart rate, blood pressure, and adverse symptoms were recorded at regular intervals. […]

[4] = test system: healthy female volunteers; experiment: Symptom assessment study during 30-min iv infusion of NKB to healthy women; type: in vivo, human; conditions: 5.12 nmol/kg/min iv for 30 min
Description: as §1, with “Five” for “Ten”, “37.8±1.7y;” for “35.3±1.3y;”, “21.9±0.7” for “22.1±0.7”, “8.0±0.9)” for “5.9±0.6)”
as §2
Participants were admitted in the morning to the Clinical Investigation Unit between days 3 and 10 of their menstrual cycle, and asked to lay supine for the 180 minute study duration (FIG. 2). A cannula was inserted into a large forearm vein and NKB (5.12 nmol/kg/min) was administered by intravenous (iv) infusion for 30 min commencing at t=90 min. This dose of NKB was selected as it was the maximal dose that was well-tolerated dose experiment 1, above. NKB was dissolved in saline containing gelofusin (5% vol/vol) (B. Braun Medical, Sheffield, UK) to minimize peptide adsorption (Kraegen E W, Lazarus L, Meler H, Campbell L, Chia Y O, Br Med J (1974), 3:464-466). Participants (but not investigators) were blinded as to the identity of the infusion (NKB or vehicle, however all participants received NKB). Participants were informed before the study that they may experience body sensations or symptoms and they were asked to report these in real time during the study. Participants were not specifically informed that they may experience ‘hot flush’ symptoms so as to minimise reporting bias.
Data are presented as mean±standard error of mean (SEM). Means were compared using two-tailed paired t-tests. p<0.05 was considered statistically significant.

[5] = test system: healthy female subjects; experiment: 180-min intravenous infusion of NKB to healthy women, hot flush symptom diary; type: in vivo, human
Description: Eight healthy female subjects participated in the study, following ethical approval (reference: 10/H0707/68) and written consent, in accordance with The Declaration of Helsinki. All subjects had regular periods. No subjects had any history of hot flushes, deficient levels of sex hormones, or were receiving any regular medications.
as §2
[…] Continuous cardiac monitoring was performed. Heart rate, blood pressure, and adverse symptoms were recorded at regular intervals. Participants were asked to complete a symptom diary in order to measure subjective frequency and problem rating of hot flushes during each study visit. All subjects also completed a questionnaire at the end of each study visit to summarise the symptoms that they experienced that day. Data was analysed by an investigator in a blinded manner.
Data are presented as mean±standard error of mean (SEM). Multiple means were compared using one-way ANOVA with Dunnett's post-hoc test. Pairs of means were compared using paired two-tailed t-tests.

[6] = test system: ovariectomised rats; conditions: Dacks et al. 2011; cited from earlier work
[7] = 5.12 nmol/kg/h iv for 30 min, of the flushing participants
[8] = during flushing symptoms, p<0.05 vs. pre-symptoms
[9] = entire 30 minute NKB infusion period vs vehicle infusion period
[10] = over the entire duration of the infusion

CC(=O)N(C)C1(c2ccccc2)CCN(CCC[C@]2(c3ccc(Cl)c(Cl)c3)CCCN(C(=O)c3ccccc3)C2)CC1 [Osanetant, (R)-N-{{3-[1-Benzoyl-3-(3,4-dichlorophenyl)piperidin-3-yl]prop-1-yl}-4-phenylpiperidin-4-yl}-N-methylacetamine]
selectivity for NKR3 over NKR1 and NKR2 [1]: selective for NKR3 over NKR1 and NKR2

NKB: Human sequence neurokinin B synthesised by Bachem, purified by reverse-phase HPLC; tachykinin peptide, natural ligand for NKR3
onset of first flushing episodes after NKB infusion initiation ([2]; 5.12 nmol/kg/h iv for 30 min): 1 to 12 min
severity of flushing symptoms ([2]; 5.12 nmol/kg/h iv for 30 min): mild to strong
participants who experienced flushing during NKB infusion ([2]; 5.12 nmol/kg/h iv for 30 min, double-blinded): eight out of ten
participants with a single flushing episode [2, 7]: five
participants with three flushing episodes [2, 7]: two
participants with two flushing episodes [2, 7]: one
participants with concordant increases in sternal skin conductance at the time of flushing ([2]; 5.12 nmol/kg/h iv, of the flushing participants): six of the eight
mean HR [2, 8]: 76.2±1.6 bpm
mean skin temperature by skin probe [2, 8]: 34.7±0.3 Celsius
mean skin temperature by thermal imaging camera [2, 8]: 36.8±0.1 Celsius
mean MAP ([2]; during flushing symptoms, p=ns vs. pre-symptoms): 82.5±2.2 mmHg
mean MAP ([2]; pre-symptom period): 83.2±8.6 mmHg
mean skin temperature by skin probe ([2]; pre-symptom period): 34.6±0.2 Celsius
mean skin temperature by thermal imaging camera ([2]; pre-symptom period): 36.7±0.1 Celsius
mean HR ([2]; pre-symptom period, mean±SEM): 70.3±2.1 bpm
change in serum FSH [2, 9]: No significant changes
change in serum LH [2, 9]: No significant changes
change in serum estradiol [2, 9]: No significant changes
overall change in HR, NKB vs vehicle infusion [2, 10]: No overall changes
overall change in mean arterial blood pressure (MAP), NKB vs vehicle infusion [2, 10]: No overall changes
overall change in skin temperature (skin probe or thermal imaging camera), NKB vs vehicle infusion [2, 10]: No overall changes
time to full resolution of symptoms after administration was discontinued ([3]; 10.24 nmol/kg/h): ≤ 5 min
reproductive hormone secretion ([3]; intravenous administration): did not stimulate significant reproductive hormone secretion
participants experiencing flushing who reported a single flushing episode [4]: Three of the four
participants who experienced three flushing episodes [4]: one
participants reporting flushing during NKB infusion ([4]; P<0.05 vs. vehicle): four out of the five
hot flushes experienced ([5]; healthy women, iv infusion 0.64 nmol/kg/h (lowest dose)): No hot flushes were experienced
healthy women who experienced hot flushes ([5]; iv infusion 1.28 nmol/kg/h): 1/6
healthy women who experienced hot flushes ([5]; iv infusion 2.56 nmol/kg/h): 2/7
healthy women who experienced hot flushes ([5]; iv infusion 5.12 nmol/kg/h (highest dose)): 7/8
mean number of hot flushes per visit ([5]; iv infusion 5.12 nmol/kg/h, mean±SEM, P<0.01 vs. placebo (0)): 1.13±0.30

CC[C@H](NC(=O)c1c(O)c(-c2ccccc2)nc2ccccc12)c1ccccc1 [Talnetant, 3-hydroxy-2-phenyl-N-(1-phenylpropyl)quinoline-4-carboxamide]
selectivity for NKR3 over NKR1 and NKR2 [1]: selective for NKR3 over NKR1 and NKR2

CSCC[C@H](NC(=O)[C@H](CC(C)C)NC(=O)CNC(=O)[C@H](Cc1ccccc1)N(C)C(=O)[C@H](Cc1ccccc1)NC(=O)[C@H](CC(=O)O)NC(=O)CCC(=O)O)C(N)=O [senktide] (Suc-DF[NMeF]GLM-NH2)
core temperature [6]: reduced core temperature
